Assay results reported in patent US8829199B2, “Aminopyrazole derivative” (Chugai Seiyaku Kabushiki Kaisha, priority 2009, dated 2014).

Experiments:
[1] = biological target: human FGFR3 enzyme (Homo sapiens (Human), UniProt P22607); assay: Inhibitory activity against the FGFR3 enzyme (phosphorylation of biotinylated peptide, time-resolved fluorescence)
From the text: Inhibitory Activity Against the FGFR3 Enzyme
(§1) Phosphorylated biotinylated peptides were detected by the time-resolved fluorescent measurement using a europium cryptate-linked anti-phophotyrosine antibody and a streptavidin to which XL665, a derivative of allophycocyanine, is linked.

[2] = biological target: human FGFR1 enzyme (Homo sapiens (Human), UniProt P11362); assay: Inhibitory activity against the FGFR1 enzyme (phosphorylation of biotinylated peptide, time-resolved fluorescence)
From the text: Inhibitory Activity Against the FGFR1 Enzyme
as §1

[3] = biological target: human FGFR2 enzyme (Homo sapiens (Human), UniProt P21802); assay: Inhibitory activity against the FGFR2 enzyme (phosphorylation of biotinylated peptide, time-resolved fluorescence)
Sequence of human FGFR2 enzyme (P21802 22-821): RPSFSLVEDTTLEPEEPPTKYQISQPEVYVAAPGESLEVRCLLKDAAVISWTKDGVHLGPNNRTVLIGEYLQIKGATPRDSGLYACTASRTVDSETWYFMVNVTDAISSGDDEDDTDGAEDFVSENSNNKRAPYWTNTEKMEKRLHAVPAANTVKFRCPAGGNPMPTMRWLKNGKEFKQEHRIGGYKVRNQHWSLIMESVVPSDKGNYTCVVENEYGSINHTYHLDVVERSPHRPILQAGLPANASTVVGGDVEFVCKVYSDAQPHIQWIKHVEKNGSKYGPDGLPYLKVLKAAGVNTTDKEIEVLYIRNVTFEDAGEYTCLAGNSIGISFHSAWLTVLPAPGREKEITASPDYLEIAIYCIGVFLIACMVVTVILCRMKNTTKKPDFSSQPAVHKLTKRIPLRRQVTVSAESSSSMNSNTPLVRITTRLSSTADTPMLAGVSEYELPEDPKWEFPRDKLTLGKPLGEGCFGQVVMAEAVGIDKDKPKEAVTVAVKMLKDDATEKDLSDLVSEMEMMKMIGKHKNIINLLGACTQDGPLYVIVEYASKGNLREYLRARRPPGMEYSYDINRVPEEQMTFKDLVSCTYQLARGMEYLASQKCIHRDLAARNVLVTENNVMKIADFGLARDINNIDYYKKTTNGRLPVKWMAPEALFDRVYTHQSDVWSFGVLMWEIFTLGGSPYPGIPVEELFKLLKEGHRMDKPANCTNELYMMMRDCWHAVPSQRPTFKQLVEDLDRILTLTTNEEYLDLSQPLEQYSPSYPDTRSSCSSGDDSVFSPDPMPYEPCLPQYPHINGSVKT
From the text: as §1

Sequence of human FGFR3 enzyme (P22607 23-806): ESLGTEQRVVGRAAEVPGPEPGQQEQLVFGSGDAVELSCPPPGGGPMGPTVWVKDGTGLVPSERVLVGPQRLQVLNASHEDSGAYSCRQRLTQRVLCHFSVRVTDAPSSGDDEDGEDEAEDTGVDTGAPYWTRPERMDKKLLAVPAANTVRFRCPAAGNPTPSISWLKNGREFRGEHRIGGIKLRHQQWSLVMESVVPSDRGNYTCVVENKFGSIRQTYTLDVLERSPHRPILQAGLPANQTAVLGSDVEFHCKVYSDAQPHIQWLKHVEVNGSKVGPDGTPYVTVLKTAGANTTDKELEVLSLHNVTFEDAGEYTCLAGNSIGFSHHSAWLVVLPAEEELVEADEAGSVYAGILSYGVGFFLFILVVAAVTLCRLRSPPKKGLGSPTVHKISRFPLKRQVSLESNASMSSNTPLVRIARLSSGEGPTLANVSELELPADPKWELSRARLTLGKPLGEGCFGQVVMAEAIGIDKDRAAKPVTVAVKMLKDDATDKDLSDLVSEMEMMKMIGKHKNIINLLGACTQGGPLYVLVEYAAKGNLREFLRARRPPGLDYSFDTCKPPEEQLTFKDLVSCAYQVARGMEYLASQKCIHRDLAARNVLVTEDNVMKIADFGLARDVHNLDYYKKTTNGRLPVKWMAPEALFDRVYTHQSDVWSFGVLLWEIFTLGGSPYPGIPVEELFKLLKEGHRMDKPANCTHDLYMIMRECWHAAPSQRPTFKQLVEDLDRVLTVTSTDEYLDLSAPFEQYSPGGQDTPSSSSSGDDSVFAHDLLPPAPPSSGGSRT
Sequence of human FGFR1 enzyme (P11362 22-822): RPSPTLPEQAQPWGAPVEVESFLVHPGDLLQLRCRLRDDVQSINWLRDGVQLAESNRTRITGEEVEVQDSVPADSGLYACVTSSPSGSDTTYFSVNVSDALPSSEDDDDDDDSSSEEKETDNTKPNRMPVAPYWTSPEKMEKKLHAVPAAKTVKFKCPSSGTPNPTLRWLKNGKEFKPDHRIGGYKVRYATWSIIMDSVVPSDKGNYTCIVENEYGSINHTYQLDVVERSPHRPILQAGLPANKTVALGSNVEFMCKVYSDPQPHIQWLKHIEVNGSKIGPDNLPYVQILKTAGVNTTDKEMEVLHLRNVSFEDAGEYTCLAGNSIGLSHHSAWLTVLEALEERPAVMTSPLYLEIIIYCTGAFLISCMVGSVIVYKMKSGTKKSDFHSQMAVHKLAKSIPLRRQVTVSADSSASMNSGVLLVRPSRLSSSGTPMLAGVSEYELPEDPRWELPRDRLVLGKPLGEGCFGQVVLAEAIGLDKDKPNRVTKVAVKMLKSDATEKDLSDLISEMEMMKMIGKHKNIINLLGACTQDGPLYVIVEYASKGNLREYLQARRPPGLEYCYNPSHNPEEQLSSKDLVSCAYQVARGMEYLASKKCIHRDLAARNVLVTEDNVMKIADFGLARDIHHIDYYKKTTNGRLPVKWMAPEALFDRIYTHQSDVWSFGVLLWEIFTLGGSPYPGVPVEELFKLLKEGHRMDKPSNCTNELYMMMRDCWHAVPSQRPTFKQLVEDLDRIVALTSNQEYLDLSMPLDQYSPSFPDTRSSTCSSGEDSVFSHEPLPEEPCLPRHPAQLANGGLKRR

| IC50 [1] | IC50 [2] | IC50 [3] | SMILES |
| --- | --- | --- | --- |
| ≤ 300 nM |  |  | Cc1ccnc(-c2ccc3cc(C(=O)c4cnn(-c5ccc6[nH]c(C)nc6c5)c4N)[nH]c3c2)c1 [Example 32] |
| ≤ 300 nM |  |  | Cc1nc2cc(-n3ncc(C(=O)c4cc5cc6c(cc5[nH]4)OCO6)c3N)ccc2[nH]1 [Example 61, [5-amino-1-(2-methyl-1H-benzimidazol-5-yl)-1H-pyrazol-4-yl]-(5H-[1,3]dioxolo[4,5-f]indol-6-yl)-methanone] |
| ≤ 300 nM |  |  | Cc1nc2cc(-n3ncc(C(=O)c4cc5ccc(-c6ccnnc6)cc5[nH]4)c3N)ccc2[nH]1 [Example 89, [5-amino-1-(2-methyl-1H-benzimidazol-5-yl)-1H-pyrazol-4-yl]-(6-pyridazin-4-yl-1H-indol-2-yl)-methanone] |
| ≤ 300 nM | ≤ 300 nM | ≤ 300 nM | Cc1nc2cc(-n3ncc(C(=O)c4cc5ccc(-c6ccc(N7CCNCC7)nc6)cc5[nH]4)c3N)ccc2[nH]1 [Example 110, [5-amino-1-(2-methyl-1H-benzimidazol-5-yl)-1H-pyrazol-4-yl]-[6-(6-piperazin-1-yl-pyridin-3-yl)-1H-indol-2-yl]-methanone] |
